According to patent US6388105B1, “Benzofuran, indole or benzothiophene 2,4-pentadienoic acid derivatives having selective activity for retinoid X (RXR) receptors” (Allergan Sales, Inc., priority 2001, dated 2002):

Columns and labels:
RXRβ [1] = molecular target: T1, RXRβ (Homo sapiens, UniProt P28702); test: ligand binding assay, RXRβ; details: read-out: Kd (nM) RXR β
T1 construct: expressed in transfected cells
T1 sequence (P28702 1-533): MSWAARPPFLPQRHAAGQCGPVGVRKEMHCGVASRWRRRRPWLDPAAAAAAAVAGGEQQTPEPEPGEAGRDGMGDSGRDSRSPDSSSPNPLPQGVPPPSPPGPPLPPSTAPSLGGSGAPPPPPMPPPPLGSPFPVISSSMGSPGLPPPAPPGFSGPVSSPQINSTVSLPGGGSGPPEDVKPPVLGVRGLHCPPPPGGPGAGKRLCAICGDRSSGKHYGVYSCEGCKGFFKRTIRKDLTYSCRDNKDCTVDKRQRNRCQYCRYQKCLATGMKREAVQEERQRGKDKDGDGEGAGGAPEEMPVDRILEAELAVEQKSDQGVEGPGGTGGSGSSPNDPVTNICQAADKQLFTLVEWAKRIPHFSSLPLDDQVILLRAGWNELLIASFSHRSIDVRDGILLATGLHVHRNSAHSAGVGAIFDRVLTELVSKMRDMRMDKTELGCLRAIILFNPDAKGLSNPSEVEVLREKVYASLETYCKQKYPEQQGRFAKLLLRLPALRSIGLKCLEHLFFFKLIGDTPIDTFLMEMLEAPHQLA
From the text: (§1) A holoreceptor transactivation assay and a ligand binding assay which measure the antagonist/agonist like activity of the compounds of the invention, or their ability to bind to the several retinoid receptor subtypes, respectively, are described in published PCT Application No. WO WO93/11755 (particularly on pages 30-33 and 37-41) published on Jun. 24, 1993, the specification of which is also incorporated herein by reference. A detailed experimental procedure for holoreceptor transactivations has been described by Heyman et al. Cell 68, 397-406, (1992); Allegretto et al. J. Biol. Chem. 268, 26625-26633, and Mangelsdorf et al. The Retinoids: Biology, Chemistry and Medicine, pp 319-349, Raven Press Ltd., New York, which are expressly incorporated herein by reference. The results obtained in this assay are expressed in EC50 numbers, as they are also in the chimeric receptor transactivation assay. The results of ligand binding assay are expressed in Kd numbers. (See Cheng et al. Biochemical Pharmacology Vol. 22 pp 3099-3108, expressly incorporated herein by reference.)
(§2) Table 1 discloses the activity of certain exemplary compounds of the invention in the above-described holoreceptor transactivation assay and a ligand binding assays. Particularly, the transactivation data pertaining to RAR receptors were obtained in the chimeric assay, and the data pertaining to transactivation of RXR receptors were obtained in the holoreceptor transactivation assay.

RXRα [2] = molecular target: T2, RXRα (Homo sapiens, UniProt P19793); test: holoreceptor transactivation assay, RXRα; type: cell-based; details: for EC50: read-out: EC50 (nM) RXR α
T2 construct: expressed in transfected cells
T2 sequence (P19793 1-462): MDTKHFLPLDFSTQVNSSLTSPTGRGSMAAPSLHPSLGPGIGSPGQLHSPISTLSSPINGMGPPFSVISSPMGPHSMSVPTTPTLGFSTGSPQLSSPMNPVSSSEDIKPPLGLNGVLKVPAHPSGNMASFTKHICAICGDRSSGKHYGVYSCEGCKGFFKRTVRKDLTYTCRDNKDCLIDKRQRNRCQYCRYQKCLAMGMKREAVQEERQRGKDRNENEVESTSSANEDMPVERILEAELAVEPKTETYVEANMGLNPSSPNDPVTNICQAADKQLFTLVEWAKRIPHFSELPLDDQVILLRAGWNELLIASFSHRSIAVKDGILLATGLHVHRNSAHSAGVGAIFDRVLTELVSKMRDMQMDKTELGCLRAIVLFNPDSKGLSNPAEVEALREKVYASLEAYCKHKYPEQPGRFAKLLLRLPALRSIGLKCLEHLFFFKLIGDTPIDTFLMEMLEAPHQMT
From the text: as §1, §2

RXRγ [3] = molecular target: T3, RXRγ (Homo sapiens, UniProt P48443); test: ligand binding assay, RXRγ; details: read-out: Kd (nM) RXR γ
T3 construct: expressed in transfected cells
T3 sequence (P48443 1-463): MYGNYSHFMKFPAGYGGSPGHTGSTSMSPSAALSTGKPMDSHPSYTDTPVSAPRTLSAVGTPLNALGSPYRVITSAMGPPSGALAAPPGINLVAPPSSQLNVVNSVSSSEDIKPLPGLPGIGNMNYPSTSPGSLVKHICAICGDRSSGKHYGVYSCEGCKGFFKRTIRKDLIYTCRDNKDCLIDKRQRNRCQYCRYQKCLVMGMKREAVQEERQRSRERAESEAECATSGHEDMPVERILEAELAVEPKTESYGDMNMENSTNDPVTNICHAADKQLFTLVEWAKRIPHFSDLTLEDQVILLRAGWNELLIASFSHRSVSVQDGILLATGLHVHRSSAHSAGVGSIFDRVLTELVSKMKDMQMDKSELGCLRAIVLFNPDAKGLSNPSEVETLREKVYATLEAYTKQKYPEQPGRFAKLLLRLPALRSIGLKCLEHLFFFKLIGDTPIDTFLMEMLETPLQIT
From the text: as §1, §2

RXRγ [4] = molecular target: T3, RXRγ; test: holoreceptor transactivation assay, RXRγ; type: cell-based; details: for EC50: read-out: EC50 (nM) RXR γ
From the text: as §1, §2

RXRβ [5] = molecular target: T1, RXRβ; test: holoreceptor transactivation assay, RXRβ; type: cell-based; details: for EC50: read-out: EC50 (nM) RXR β
From the text: as §1, §2

RXRα [6] = molecular target: T2, RXRα; test: ligand binding assay, RXRα; details: read-out: Kd (nM) RXR α
From the text: as §1, §2

Kd (RXRβ [1]) | % Eff RXR α (RXRα [2]) | EC50 (RXRα [2]) | Kd (RXRγ [3]) | % Eff RXR γ (RXRγ [4]) | EC50 (RXRγ [4]) | % Eff RXR β (RXRβ [5]) | EC50 (RXRβ [5]) | Kd (RXRα [6]) | Compound
20 nM | 144% | 1.5 nM | 40 nM | 131% | 2.9 nM | 150% | 17 nM | 11 nM | CCc1oc2ccc([C@@]3(C)C[C@H]3/C=C/C(C)=C/C(=O)O)cc2c1C(C)(C)C [Compound 12, 3-Methyl-6(S),7(S)-methano-7-(3-t-butyl-2-ethyl-benzofur-5-yl)-octa-2(E),4(E)-dienoic acid]
288 nM | 130% | 6 nM | 256 nM | 90% | 12 nM | 90% | 44 nM | 71 nM | CCc1oc2ccc([C@@]3(C)C[C@H]3/C=C/C(C)=C/C(=O)O)cc2c1CC [Compound 20, 3-Methyl-6(S),7(S)-methano-7-(2,3-di-ethyl-benzofur-5-yl)-octa-2(E),4(E)-dienoic acid]
17 nM | 102% | 0.7 nM | 48 nM | 110% | 0.8 nM | 116% | 4.3 nM | 6.8 nM | CCc1oc2ccc([C@@]3(C)C[C@H]3/C=C/C(C)=C/C(=O)O)cc2c1C(C)C [Compound 28, 3-Methyl-6(S),7(S)-methano-7-(2-ethyl-3-iso-propyl-benzofur-5-yl)-octa-2(E),4(E)-dienoic acid]
98 nM | 100% | 2.2 nM | > 1000 nM | 101% | 2.6 nM | 96% | 9.3 nM | 19.5 nM | CCCCCc1oc2ccc([C@@]3(C)C[C@H]3/C=C/C(C)=C/C(=O)O)cc2c1C(C)(C)C [Compound 38, 3-Methyl-6(S),7(S)-methano-7-(3-t-butyl-2-n-pentyl-benzofur-5-yl)-octa-2(E),4(E)-dienoic acid]
